Data on one compound can be found in article PMC6178282, “Comparative cell biological study of in vitro antitumor and antimetastatic activity on melanoma cells of GnRH-III-containing conjugates modified with short-chain fatty acids” (Beilstein Journal of Organic Chemistry, 2018).

Where two headings read alike, the source gives them in different places.

The test concerns A2058 melanoma cells. The test can be described thus: xCELLigence impedance-based long-term antiproliferative/cytotoxic measurement. The format is cell-based, human. The following applies: for IC50: Homo sapiens. The text has this: One of the major requirements for a drug-delivery conjugate is the ability to provide the antitumor activity of the attached drug inside the cells. The antiproliferative/cytotoxic effect of conjugates was investigated by an impedimetric technique, xCELLigence System (ACEA Biosciences, San Diego, CA, USA). The real-time measurement of the impedance change, which is in direct correlation with the number of adhered cells on an electrode surface, makes this impedimetric assay sensitive enough for cytotoxicity experiments. In the event of a cytotoxic compound, the cells detach from the electrode surface and a drop in the impedance – given as Cell index values – could be observed.
IC50 values – a concentration that decreases the cell viability by 50% – were calculated from Cell index values obtained at 48 h and 72 h for each concentration and used for comparing the effects of conjugates. It is clearly seen that the presence of acylated Lys could increase almost 10-fold the antitumor activity (p < 0.001) of parent conjugate (GnRH-III(Dau=Aoa)). […]
Cell proliferation and cytotoxicity measurement
The antiproliferative/cytotoxic effect of conjugates compared with Dau was assessed using the xCELLigence SP System (ACEA Biosciences, San Diego, CA, USA). This system uses a so-called E-plate having gold microelectrodes covered the surface of each well and quantifies different cellular activities (e.g. cell proliferation, cell adhesion) by real-time measuring the impedance. The detected impedance change is in direct correlation with the cell number or the electrode surface covered by the attached cells. A relative and dimensionless parameter, Cell index (CI), was calculated from the detected impedance change by the following formula: […]
where Zi is the impedance at a given time point, Z0 is the impedance at t = 0 h, and Fi is a constant depending on the frequency (F10kHz = 15). […]
For the treatment of the cells, the conjugates and the free drug were applied in 10−12–10−4 M final concentrations and the cells were monitored for further 72 h. […]
In order to evaluate whether the conjugates could elicit their antiproliferative/cytotoxic character in short-term, A2058 cells (10^4 cells/well) were seeded in 96-well plate 24 h before the treatment. […] After treating the cells with compounds in 10−6–10−5 M concentrations, where their most significant cytotoxic effect was detected in case of the long-term treatments, the cells were washed twice with serum-free medium and cultured for further 48 h in serum-containing medium. The viability of cells was determined by alamarBlue-assay (Thermo Fisher Scientific, Waltham, MA, USA) according to the manufacturer’s instruction. After 4 h incubation with the alamarBlue® reagent, the fluorescence intensity of the reaction product

[1] abbreviates: A2058 cells, Cell index time course, Figure S5.

In the case of `COc1cccc2c1C(=O)c1c(O)c3c(c(O)c1C2=O)C[C@@](O)(C(C)=O)C[C@@H]3O[C@H]1C[C@H](N)[C@H](O)[C@H](C)O1` [daunorubicin], under setting [1], the “concentrations at which the tumor-growth inhibitory effect was elicited (time-course study)” value was 10^–6 to 10^−4 M and the “time after treatment at which the effect on Cell index set in” value was in the range of 0 to 5 h. Also, the IC50 (in general, the point on the concentration scale where inhibition reaches its midpoint) (A2058, 48 h, read-out: 48 h IC50) worked out at 190 ± 17 nM. Where the note is “A2058, 72 h, read-out: 72 h IC50”, the IC50 amounted to 53 ± 9 nM.
